# Where two headings read alike, the source gives them in different places.
# Legend:
# [1] = tested on: ZF4 (fibroblasts) cell line; test: Neutral red, fluorescence (NRf), AB/CFDA/NR multiplex, lysosome stability; assay type: cell-based, zebrafish (Danio rerio); conditions: Danio rerio, Fibroblast
# [2] = tested on: ZF4 (fibroblasts) cell line; test: ATP assay (ATP/LDH multiplex), ATP metabolism; assay type: cell-based, zebrafish (Danio rerio); conditions: Danio rerio, Fibroblast
# [3] = tested on: ZF4 (fibroblasts) cell line; test: alamarBlue (AB) endpoint of AB/CFDA/NR multiplex, cellular respiration; assay type: cell-based, zebrafish (Danio rerio); conditions: Danio rerio, Fibroblast
# [4] = tested on: ZFL (hepatocytes) cell line; test: cells; assay type: cell-based, zebrafish (Danio rerio); conditions: Danio rerio, Hepatocyte
# [5] = tested on: ZFL (hepatocytes) cell line; test: cells; assay type: cell-based, zebrafish (Danio rerio); conditions: Danio rerio, Hepatocyte; remark: listed apart in the source
# [6] = tested on: ZF4 (fibroblasts) cell line; test: Neutral red, absorbance (NRa), AB/CFDA/NR multiplex, lysosome stability; assay type: cell-based, zebrafish (Danio rerio); conditions: Danio rerio, Fibroblast
# [7] = tested on: ZFL (hepatocytes) cell line; test: cells; assay type: cell-based, zebrafish (Danio rerio); conditions: Danio rerio, Hepatocyte; remark: listed apart in the source
# [8] = tested on: ZFL (hepatocytes) cell line; test: cells; assay type: cell-based, zebrafish (Danio rerio); conditions: Danio rerio, Hepatocyte; remark: listed apart in the source
# [9] = ref Comptox, PubChem or DrugBank; cited from earlier work
# [10] = tested on: ZFL (hepatocytes) cell line; test: cells; assay type: cell-based, zebrafish (Danio rerio); conditions: Danio rerio, Hepatocyte; remark: listed apart in the source
# [11] = tested on: zebrafish embryos; test: animal or person; assay type: in vivo, zebrafish (Danio rerio)
# [12] = tested on: ZFL (hepatocytes) cell line; test: cells; assay type: cell-based, zebrafish (Danio rerio); conditions: Danio rerio, Hepatocyte; remark: listed apart in the source
# [13] = tested on: ZF4 (fibroblasts) cell line; test: BCA assay (MTS/BCA multiplex), protein amount; assay type: cell-based, zebrafish (Danio rerio); conditions: Danio rerio, Fibroblast
# [14] = tested on: ZF4 (fibroblasts) cell line; test: CFDA endpoint of AB/CFDA/NR multiplex, membrane stability; assay type: cell-based, zebrafish (Danio rerio); conditions: Danio rerio, Fibroblast
# [15] = tested on: zebrafish embryos; parameters: method as in earlier work; conditions: nominal, cited from earlier work
# [16] = tested on: ZF4 and ZFL cell lines; test: Cytotoxicity assays, all endpoints, both cell lines (mean/range); assay type: cell-based, zebrafish (Danio rerio); conditions: 48 h
# [17] = tested on: ZFL (hepatocytes) cell line; test: cells; assay type: cell-based, zebrafish (Danio rerio); conditions: Danio rerio, Hepatocyte; remark: listed apart in the source
# [18] = tested on: ZF4 (fibroblasts) cell line; test: MTS assay (MTS/BCA multiplex), NAD(P)H metabolism; assay type: cell-based, zebrafish (Danio rerio); conditions: Danio rerio, Fibroblast
smiles,measurement,setting,value
"CCC(C)C1OC2(CCC1C)CC1CC(CC=C(C)C(OC3CC(OC)C(OC4CC(OC)C(O)C(C)O4)C(C)O3)C(C)C=CC=C3COC4C(O)C(C)=CC(C(=O)O1)C34O)O2 (stereo not drawn) [Ivermectin, ivermectin]",IC50,"[1]; NR-fluo - ZF4, log10 of IC50, read-out: LogIC50 (converted)",18.1 µM
same,IC50,"[1]; NR-fluo - ZF4, read-out: IC50",18.1 µM
same,IC50,"[1]; ZF4, 48 h exposure, nominal, log10, read-out: logIC50 (log10 IC50;nom) NRf (converted)",18.2 µM
same,IC50,"[1]; ZF4, 48 h exposure, nominal, read-out: IC50;nom NRf",18.1 µM
same,IC50,"[2]; ATP - ZF4, log10 of IC50, read-out: LogIC50 (converted)",15.4 µM
same,IC50,"[2]; ATP - ZF4, read-out: IC50",15.4 µM
same,IC50,"[2]; ZF4, 48 h exposure, nominal, log10, read-out: logIC50 (log10 IC50;nom) ATP (converted)",15.5 µM
same,IC50,"[2]; ZF4, 48 h exposure, nominal, read-out: IC50;nom ATP",15.4 µM
same,IC50,"[3]; AB - ZF4, log10 of IC50, read-out: LogIC50 (converted)",10.2 µM
same,IC50,"[3]; AB - ZF4, read-out: IC50",10.2 µM
same,IC50,"[3]; ZF4, 48 h exposure, nominal, log10, read-out: logIC50 (log10 IC50;nom) AB (converted)",10.2 µM
same,IC50,"[3]; ZF4, 48 h exposure, nominal, read-out: IC50;nom AB",10.2 µM
same,IC50,"[4]; MTS - ZFL, log10 of IC50, read-out: LogIC50 (converted)",10.2 µM
same,IC50,"[4]; MTS - ZFL, read-out: IC50",10.2 µM
same,IC50,"[4]; ZFL, 48 h exposure, nominal, log10, read-out: logIC50 (log10 IC50;nom) MTS (converted)",10.2 µM
same,IC50,"[4]; ZFL, 48 h exposure, nominal, read-out: IC50;nom MTS",10.2 µM
same,IC50,"[5]; BCA - ZFL, log10 of IC50, read-out: LogIC50 (converted)",7.08 µM
same,IC50,"[5]; BCA - ZFL, read-out: IC50",7.08 µM
same,IC50,"[5]; ZFL, 48 h exposure, nominal, log10, read-out: logIC50 (log10 IC50;nom) BCA (converted)",7.08 µM
same,IC50,"[5]; ZFL, 48 h exposure, nominal, read-out: IC50;nom BCA",7.08 µM
same,IC50,"[6]; NR-abs - ZF4, log10 of IC50, read-out: LogIC50 (converted)",15.4 µM
same,IC50,"[6]; NR-abs - ZF4, read-out: IC50",15.4 µM
same,IC50,"[6]; ZF4, 48 h exposure, nominal, log10, read-out: logIC50 (log10 IC50;nom) NRa (converted)",15.5 µM
same,IC50,"[6]; ZF4, 48 h exposure, nominal, read-out: IC50;nom NRa",15.4 µM
same,IC50,"[7]; NR-fluo - ZFL, log10 of IC50, read-out: LogIC50 (converted)",3.34 µM
same,IC50,"[7]; NR-fluo - ZFL, read-out: IC50",3.34 µM
same,IC50,"[7]; ZFL, 48 h exposure, nominal, log10, read-out: logIC50 (log10 IC50;nom) NRf (converted)",3.31 µM
same,IC50,"[7]; ZFL, 48 h exposure, nominal, read-out: IC50;nom NRf",3.34 µM
same,IC50,"[8]; CFDA - ZFL, log10 of IC50, read-out: LogIC50 (converted)",14.1 µM
same,IC50,"[8]; CFDA - ZFL, read-out: IC50",14.1 µM
same,IC50,"[8]; ZFL, 48 h exposure, nominal, log10, read-out: logIC50 (log10 IC50;nom) CFDA (converted)",14.1 µM
same,IC50,"[8]; ZFL, 48 h exposure, nominal, read-out: IC50;nom CFDA",14.1 µM
same,Physiological charge,[9],0
same,Water Solubility,[9],insoluble
same,logKow,[9],5.83
same,pKa (Strongest Acidic),[9],12.47
same,pKa (Strongest Basic),[9],-3.4
same,IC50,"[10]; AB - ZFL, log10 of IC50, read-out: LogIC50 (converted)",6.58 µM
same,IC50,"[10]; AB - ZFL, read-out: IC50",6.58 µM
same,IC50,"[10]; ZFL, 48 h exposure, nominal, log10, read-out: logIC50 (log10 IC50;nom) AB (converted)",6.61 µM
same,IC50,"[10]; ZFL, 48 h exposure, nominal, read-out: IC50;nom AB",6.58 µM
same,difference in toxicity (EC50;nom) between 48 hpf and 144 hpf,[11]; 48 hpf time point less sensitive than 144 hpf,marginally more toxic
same,log EC50;nom (mFET),"[11]; 48 hpf, nominal, log10, listed as Ive",-5.766 M
same,EC50,"[11]; Danio rerio, 48 hpf, nominal, log10, read-out: log EC50;nom (mFET) (converted)",1.7 µM
same,EC50,"[11]; Danio rerio, 48 hpf, nominal, read-out: EC50;nom (embryo)",1.5 µg/mL
same,EC50,"[11]; Danio rerio, read-out: EC50 48hpf",1.71 µM
same,EC50,"[11]; Danio rerio, read-out: EC50;nom (mFET)",1.71 µM
same,EC50,"[11]; zebrafish, in vivo, listed as Ive, read-out: EC50;nom (mFET)",1.71 µM
same,IC50,"[12]; NR-abs - ZFL, log10 of IC50, read-out: LogIC50 (converted)",2.55 µM
same,IC50,"[12]; NR-abs - ZFL, read-out: IC50",2.55 µM
same,IC50,"[12]; ZFL, 48 h exposure, nominal, log10, read-out: logIC50 (log10 IC50;nom) NRa (converted)",2.57 µM
same,IC50,"[12]; ZFL, 48 h exposure, nominal, read-out: IC50;nom NRa",2.55 µM
same,IC50,"[13]; BCA - ZF4, log10 of IC50, read-out: LogIC50 (converted)",16.2 µM
same,IC50,"[13]; BCA - ZF4, read-out: IC50",16.2 µM
same,IC50,"[13]; ZF4, 48 h exposure, nominal, log10, read-out: logIC50 (log10 IC50;nom) BCA (converted)",16.2 µM
same,IC50,"[13]; ZF4, 48 h exposure, nominal, read-out: IC50;nom BCA",16.2 µM
same,IC50,"[14]; CFDA - ZF4, log10 of IC50, read-out: LogIC50 (converted)",18.2 µM
same,IC50,"[14]; CFDA - ZF4, read-out: IC50",18.2 µM
same,IC50,"[14]; ZF4, 48 h exposure, nominal, log10, read-out: logIC50 (log10 IC50;nom) CFDA (converted)",18.2 µM
same,IC50,"[14]; ZF4, 48 h exposure, nominal, read-out: IC50;nom CFDA",18.2 µM
same,EC50,"[15]; 144 hpf, converted, listed as Ive",0.503 µM
same,logEC50 144 hpf,[15]; log10,-6.299 M
same,IC50,"[16]; Danio rerio, read-out: Mean log IC50nom, mean of all cytotoxicity endpoints (without LDH) in ZF4 and ZFL, 48 h, log10 (converted)",9.12 µM
same,Mean log IC50nom,"[16]; mean of all cytotoxicity endpoints (without LDH) in ZF4 and ZFL, log10, listed as Ive",-5.042 M
same,IC50,"[17]; ATP - ZFL, log10 of IC50, read-out: LogIC50 (converted)",2.61 µM
same,IC50,"[17]; ATP - ZFL, read-out: IC50",2.61 µM
same,IC50,"[17]; ZFL, 48 h exposure, nominal, log10, read-out: logIC50 (log10 IC50;nom) ATP (converted)",2.63 µM
same,IC50,"[17]; ZFL, 48 h exposure, nominal, read-out: IC50;nom ATP",2.61 µM
same,IC50,"[18]; MTS - ZF4, log10 of IC50, read-out: LogIC50 (converted)",13.6 µM
same,IC50,"[18]; MTS - ZF4, read-out: IC50",13.6 µM
same,IC50,"[18]; ZF4, 48 h exposure, nominal, log10, read-out: logIC50 (log10 IC50;nom) MTS (converted)",13.5 µM
same,IC50,"[18]; ZF4, 48 h exposure, nominal, read-out: IC50;nom MTS",13.6 µM

# Reference: PMC7872314, “Modeling Bioavailable Concentrations in Zebrafish Cell Lines and Embryos Increases the Correlation of Toxicity Potencies across Test Systems” (Environmental Science & Technology, 2020)
